Source: US20160130592A1, “Soybean Transformation Using HPPD Inhibitors as Selection Agents” (Bayer CropScience AG, priority 2010, published 2016)

How the values were obtained:
untransformed tissue = assay: Visual selection with IFT as selectable agent; format: cell-based, soybean; conditions: FIG. 1; transformed material becomes green
Description: FIG. 1: Visual selection with IFT as selectable agent.

untransformed cells = assay: Selection with DKN as selectable agent in Shoot Induction medium, cotyledonary node method; format: cell-based, soybean; conditions: DKN 2 ppm in Shoot Induction medium
Method: The cotyledonary node method used for transforming soybean has been described by Zhang et al., 1999, Clemente et al. 2000, Xing et al. 2000.
After washing, the explants are placed (5 per plate) on the Shoot Initiation Medium, inclined at 45°, with the cotyledonary node area imbedded in the medium and upwards. The Shoot Initiation step lasts 1 month (24° C. 16/8 photoperiod) with a transfer after 15 days in which the hypocotyl is eliminated to keep only the differentiating area and the cotyledon.
1×B5 major salts, 1×B5 minor salts, 28 mg/L Ferrous, 38 mg/L NaEDTA, 30 g/L Sucrose, 0.59 g/L MES, and 7 g/L Noble agar (pH 5.7). Filter sterilized 1×B5 vitamins, BAP (1.11 mg/L), Timentin (50 mg/L), Cefotaxime (200 mg/L), Vancomycin (50 mg/L) and the selection agent are added to this medium after autoclaving.
Transgenic events (cv Thorne) were generated for construct carrying hppd gene alone (e.i. pFCO117) or in combination with pdh gene (e.i. pFCO48), using DKN as selection agent, as described in example 1. Selection agent DKN (diketonitrile) was added in SI (Shoot Induction medium) at a final concentration of 2 ppm and for about 4 week. When explants were transferred to SE (Shoot Elongation medium), selection was removed. […] Visual selectable marker dramatically decreases selection time, as untransformed material can be identified and eliminated in as little as 4 weeks after transformation.

[1] = about 4 weeks, cv Thorne, in vitro

SMILES: CS(=O)(=O)c1cc(C(F)(F)F)ccc1C(=O)c1cnoc1C1CC1 [IFT, (5-cyclopropyl-4-isoxazolyl)[2-(methylsulfonyl)-4-(trifluoromethyl)phenyl]methanone]
- phenotype of untransformed tissue (untransformed tissue): white, elongated shoots

SMILES: CS(=O)(=O)c1cc(C(F)(F)F)ccc1C(=O)C(C#N)C(=O)C1CC1 (stereo not shown) [DKN, 2-cyano-3-cyclopropyl-1-(2-methylsulphonyl-4-trifluoromethylphenyl)-propane-1,3-dione]
- effect on chlorophyll synthesis (untransformed cells; [1]): prevents chlorophyll synthesis
- lethality for untransformed cells (untransformed cells; [1]): does not kill untransformed cells
- phenotype of untransformed tissue (untransformed cells; transformed material becomes green): white, elongated shoots
